# Values joined by “and” are separate entries in the source; they are usually repeats but may differ in a detail not shown here. Equal entries are not always repeated.
# Experiments:
# [1] = test system: Pseudomonas aeruginosa Pa14; assay: FIC index of combinations with conventional antibiotics, strain Pa14; assay type: cell-based; details: strain Pa14 (Col^R)
# Description: (§1) The bacterial inoculum was established by the dilution method from actively-growing cultures in Mueller-Hinton (MH) broth, standardized with 0.5 McFarland turbidity standard as described in the CLSI method M26-A.
# (§2) Both the bacterial inoculum and the antimicrobial agents, including the compounds structurally related to cysteamine, were added simultaneously to the plates. The plates were incubated at 37° C. for 24 h and the optical density was read at 625 nm on a microtitre plate reader (BioTek Powerwave XS, Winooski, USA). The MIC was obtained as the lowest concentration of antimicrobial showing total inhibition of bacterial growth.
# (§3) The FIC corresponds to an interaction coefficient indicating whether the combination of antimicrobial agents is synergistic, additive, antagonist or neutral. The FIC is determined by comparing the activity of an agent in combination (MIC of agent A+agent B) with the activity of the agent alone (MIC of agent A or agent B) as follow (Singh et al., 2000): FIC=MICA[combination]/MICA[alone]+MICB[combination]/MICB[alone]
# (§4) Additive combinations of two antimicrobial agents are indicated by a FIC index of 1, whereas a FIC index<1 indicates synergistic combinations. Neutral combinations would give a FIC between 1 and 4, a FIC index higher than 4 indicates antagonist effects between the two antimicrobial agents.
# (§5) The FIC was also calculated to assess the interaction of two antimicrobial agents in combination against bacterial samples.
# [2] = test system: P. aeruginosa PAO1 biofilms; assay: Post-antimicrobial effect and metabolic activity of biofilms after treatment (FIG. 9, 10); assay type: cell-based, Pseudomonas aeruginosa; details: 24 h following treatment of the biofilms
# Description: FIG. 9: is a graph showing the post-antimicrobial effect of cysteamine (NM001) in combination with Tobramycin versus P. aeruginosa PAO1 biofilms. […] The PAE was determined by transfer of 10 μl biofilm cultures into 90 μl sterile MH broth in triplicate in microtitre plates following treatment. Bacterial growth was followed on a BioTek plate reader for 24 h at 37° C. Microbial metabolic activity following treatment of the biofilms was determined using the same method as for PAE determination and adding 10% (v/v) of a fluorescent cell viability indicator, resazurin (Alamar Blue, Serotec), which detected microbial metabolic activity growth by increase in fluorescence. Fluorescence was measured over 24 h at 37° C. using a BioTek Synergy HT microplate reader (BioTek, Winooski, USA) at 530/590 nm.
# [3] = test system: Pseudomonas aeruginosa cells; assay: Tobramycin alone and with cysteamine in non-mucous and mucous environment (FIG. 3); assay type: cell-based; details: mucous environment (NaCl and/or mucin)
# From the text: FIG. 3: provides a comparison of the activity of Tobramycin alone and when in combination with cysteamine (NM001) against Pseudomonas aeruginosa cells cultured in a non-mucous environment and when cultured in a mucous environment replicating that found within the CF lung (in the presence of NaCl and/or mucin).
# [4] = test system: Pseudomonas aeruginosa Pa01; assay: FIC index of combinations with conventional antibiotics, strain Pa01; assay type: cell-based; details: strain Pa01 (Col^R), listed as Cysteamine (NM001)
# Description: as §1, §2, §3, §4, §5
compound,measurement,setting,value
"NCCS [Cysteamine, cysteamine]",FICI (Additive) Cip,"[1]; in combination with Ciprofloxacin, listed as Cysteamine (NM001)",0.75 and 0.63
same,FICI (Synergy) Col,[1]; in combination with Colistin,0.38
same,FICI (Additive) Col,"[1]; in combination with Colistin, listed as Cysteamine (NM001)",0.53 and 0.5 and 0.56
same,FICI (Additive) Gent,"[1]; in combination with Gentamicin, listed as Cysteamine (NM001)",0.63 and 0.5 and 0.75
same,FICI (Additive) Tob,"[1]; in combination with Tobramycin, listed as Cysteamine (NM001)",0.56 and 0.75 and 0.5
same,"post-antimicrobial effect (delayed bacterial growth, reduced metabolic activity of the biofilm)",[2],significant PAE
same,effect on activity of conventional antibiotics,[3],restores antibiotic activity
same,FICI (Additive) Col,[4]; in combination with Colistin,0.53 and 0.56
same,FICI (Synergy) Col,[4]; in combination with Colistin,0.38 and 0.31 and 0.25
same,FICI (Additive) Gent,[4]; in combination with Gentamicin,0.5 and 0.53 and 0.63
same,FICI (Synergy) Gent,[4]; in combination with Gentamicin,0.38
same,FICI (Additive) Tob,[4]; in combination with Tobramycin,0.63
same,FICI (Synergy) Tob,[4]; in combination with Tobramycin,0.31 and 0.28 and 0.25
